Data from ChEMBL document CHEMBL2429852, “Synthesis and evaluation of new chalcones, derived pyrazoline and cyclohexenone derivatives as potent antimicrobial, antitubercular and antileishmanial agents” (Med Chem Res, 2013).
≈ marks a conversion by molar mass, not a printed value.

Assays:
Aspergillus niger = assay: Antifungal activity against Aspergillus niger MTCC 282 assessed as growth inhibition by broth microdilution method; assay type: functional
Escherichia coli = assay: Antibacterial activity against Escherichia coli MTCC 442 assessed as growth inhibition by broth microdilution method; assay type: functional
Streptococcus pyogenes = assay: Antibacterial activity against Streptococcus pyogenes MTCC 443 assessed as growth inhibition by broth microdilution method; assay type: functional
Pseudomonas aeruginosa [1] = assay: Antibacterial activity against Pseudomonas aeruginosa MTCC 2488 assessed as growth inhibition by broth microdilution method; assay type: functional
Candida albicans [2] = assay: Potency index, ratio of griseofulvin MIC to compound MIC for Candida albicans MTCC 227; assay type: functional
Aspergillus clavatus = assay: Antifungal activity against Aspergillus clavatus MTCC 1323 assessed as growth inhibition by broth microdilution method; assay type: functional
[3] = tested on: Mycobacterium tuberculosis; assay: Antitubercular activity against Mycobacterium tuberculosis H37Rv assessed as growth inhibition after 12 to 28 days by Lowenstein-Jensen agar method; assay type: functional; details: for MIC: Mycobacterium tuberculosis, H37Rv
Staphylococcus aureus [4] = assay: Antibacterial activity against Staphylococcus aureus MTCC 96 assessed as growth inhibition by broth microdilution method; assay type: functional
Candida albicans [5] = assay: Antifungal activity against Candida albicans MTCC 227 assessed as growth inhibition by broth microdilution method; assay type: functional
Leishmania braziliensis = assay: Antileishmanial activity against promastigote stage of Leishmania braziliensis H3 assessed as parasite growth inhibition after 72 hrs by Neubauer chamber counting method; assay type: functional, organism-based
[6] = Cytotoxicity against mouse J774A1 cells after 72 hrs by MTT assay; assay type: cell-based, J774.A1
[7] = Selectivity index, ratio of CC50 for mouse J774A1 cells to IC50 for promastigote stage of Leishmania braziliensis H3; assay type: functional, J774.A1
Staphylococcus aureus [8] = assay: Potency index, ratio of ampicillin MIC to compound MIC for Staphylococcus aureus MTCC 96; assay type: functional
Pseudomonas aeruginosa [9] = assay: Potency index, ratio of ampicillin MIC to compound MIC for Pseudomonas aeruginosa MTCC 2488; assay type: functional
[10] = Leishmania braziliensis, H3, 72 h, read-out: IC50

Work on `O=C(/C=C/c1ccc2c(c1)OCO2)c1cccc([N+](=O)[O-])c1` yielded an MIC99 (Aspergillus niger) of 1000 µg/mL, an MIC99 (Escherichia coli) of 250 µg/mL and an MIC99 (Streptococcus pyogenes) of 250 µg/mL. It also gave an MIC99 (Pseudomonas aeruginosa [1]) of 250 µg/mL, a Ratio (Candida albicans [2]) of 2 and an MIC99 (Aspergillus clavatus) of 1000 µg/mL. The “growth inhibition (GI)” value [3] was 99%, the MIC [3] was 250 µg/mL (≈ 841 µM) and the MIC99 (Staphylococcus aureus [4]) was 250 µg/mL. The MIC99 (Candida albicans [5]) was 250 µg/mL and the IC50 (Leishmania braziliensis) was “Not Active”.
`CCOC(=O)C1C(=O)C=C(c2cccc([N+](=O)[O-])c2)CC1c1ccc(OC)cc1` (stereo unspecified) showed an MIC99 (Aspergillus niger) of over 1000 µg/mL, an MIC99 (Escherichia coli) of 100 µg/mL and an MIC99 (Streptococcus pyogenes) of 500 µg/mL. For the same compound, the MIC99 (Pseudomonas aeruginosa [1]) was 200 µg/mL, the MIC99 (Aspergillus clavatus) was over 1000 µg/mL and the “growth inhibition (GI)” value [3] was 98%. For the same compound, the MIC [3] was 500 µg/mL (≈ 1260 µM), the MIC99 (Staphylococcus aureus [4]) was 250 µg/mL and the MIC99 (Candida albicans [5]) was 500 µg/mL. The IC50 (Leishmania braziliensis) was “Not Active”.
With `COc1cc(OC)c(OC)cc1/C=C/C(=O)c1cccc([N+](=O)[O-])c1` the MIC99 (Aspergillus niger) was 1000 µg/mL, the MIC99 (Escherichia coli) was 125 µg/mL and the MIC99 (Streptococcus pyogenes) was 500 µg/mL. For the same compound, the MIC99 (Pseudomonas aeruginosa [1]) was 125 µg/mL, the MIC99 (Aspergillus clavatus) was 1000 µg/mL and the “growth inhibition (GI)” value [3] was 99%. For the same compound, the MIC [3] was 250 µg/mL (≈ 728 µM), the MIC99 (Staphylococcus aureus [4]) was 500 µg/mL and the MIC99 (Candida albicans [5]) was 1000 µg/mL. For the same compound, the IC50 (Leishmania braziliensis) was “Not Active”.
`COC1=CC(=O)C[C@@H](C)[C@]12Oc1c(Cl)c(OC)cc(OC)c1C2=O` [GRISEOFULVIN] showed an MIC99 (Aspergillus niger) of 100 µg/mL, an MIC99 (Aspergillus clavatus) of 100 µg/mL and an MIC99 (Candida albicans [5]) of 500 µg/mL.
`CCOC(=O)C1C(=O)C=C(c2cccc([N+](=O)[O-])c2)CC1c1ccc2c(c1)OCO2` (stereo unspecified) showed an MIC99 (Aspergillus niger) of 1000 µg/mL, an MIC99 (Escherichia coli) of 125 µg/mL and an MIC99 (Streptococcus pyogenes) of 200 µg/mL. The MIC99 (Pseudomonas aeruginosa [1]) was 200 µg/mL, the MIC99 (Aspergillus clavatus) was 1000 µg/mL and the “growth inhibition (GI)” value [3] was 99%. For the same compound, the MIC [3] was 250 µg/mL (≈ 611 µM), the MIC99 (Staphylococcus aureus [4]) was 250 µg/mL and the MIC99 (Candida albicans [5]) was 500 µg/mL. The IC50 (Leishmania braziliensis) was “Not Active”.
`COc1ccc(/C=C/C(=O)c2cccc([N+](=O)[O-])c2)c(OC)c1OC` gave an MIC99 (Aspergillus niger) of over 1000 µg/mL, an MIC99 (Escherichia coli) of 200 µg/mL and a CC50 at 72 h [6] of 89.5 µM. For the same compound, the MIC99 (Streptococcus pyogenes) was 250 µg/mL, the MIC99 (Pseudomonas aeruginosa [1]) was 200 µg/mL and the MIC99 (Aspergillus clavatus) was over 1000 µg/mL. For the same compound, the “growth inhibition (GI)” value [3] was 98%, the MIC [3] was 500 µg/mL (≈ 1460 µM) and the MIC99 (Staphylococcus aureus [4]) was 250 µg/mL. The “Ratio CC50/IC50” value [7] was 10.06, the MIC99 (Candida albicans [5]) was 1000 µg/mL and the IC50 (Leishmania braziliensis; [10]) was 8.9 µM.
Work on `COc1ccc(C2CC(c3cccc([N+](=O)[O-])c3)=NN2C(C)=O)c(OC)c1OC` (stereo unspecified) yielded an MIC99 (Aspergillus niger) of 250 µg/mL, an MIC99 (Escherichia coli) of 100 µg/mL and an MIC99 (Streptococcus pyogenes) of 250 µg/mL. For the same compound, the MIC99 (Pseudomonas aeruginosa [1]) was 100 µg/mL, the MIC99 (Aspergillus clavatus) was 250 µg/mL and the “growth inhibition (GI)” value [3] was 99%. The MIC [3] was 250 µg/mL (≈ 626 µM), the MIC99 (Staphylococcus aureus [4]) was 250 µg/mL and the MIC99 (Candida albicans [5]) was 1000 µg/mL. The IC50 (Leishmania braziliensis) was “Not Active”.
`O=[N+]([O-])c1cccc(C2=NNC(c3ccc4ccccc4c3)C2)c1` (stereo unspecified) showed an MIC99 (Aspergillus niger) of 100 µg/mL, an MIC99 (Escherichia coli) of 250 µg/mL and an MIC99 (Streptococcus pyogenes) of 125 µg/mL. For the same compound, the MIC99 (Pseudomonas aeruginosa [1]) was 25 µg/mL, the Ratio (Candida albicans [2]) was 5 and the Ratio (Staphylococcus aureus [8]) was 2. For the same compound, the MIC99 (Aspergillus clavatus) was 250 µg/mL, the “growth inhibition (GI)” value [3] was 99% and the MIC [3] was 62.5 µg/mL (≈ 197 µM). It also gave an MIC99 (Staphylococcus aureus [4]) of 50 µg/mL, a Ratio (Pseudomonas aeruginosa [9]) of 4 and an MIC99 (Candida albicans [5]) of 100 µg/mL. The IC50 (Leishmania braziliensis) was “Not Active”.
For `O=C(/C=C/C=C/c1ccccc1)c1cccc([N+](=O)[O-])c1`, the MIC99 (Aspergillus niger) was 1000 µg/mL, the MIC99 (Escherichia coli) was 200 µg/mL and the MIC99 (Streptococcus pyogenes) was 125 µg/mL. It also gave an MIC99 (Pseudomonas aeruginosa [1]) of 100 µg/mL, a Ratio (Candida albicans [2]) of 2 and an MIC99 (Aspergillus clavatus) of 1000 µg/mL. The “growth inhibition (GI)” value [3] was 97%, the MIC [3] was 1000 µg/mL (≈ 3580 µM) and the MIC99 (Staphylococcus aureus [4]) was 125 µg/mL. For the same compound, the MIC99 (Candida albicans [5]) was 250 µg/mL and the IC50 (Leishmania braziliensis) was “Not Active”.
In the case of `COc1cc(C2CC(c3cccc([N+](=O)[O-])c3)=NN2C(C)=O)cc(OC)c1OC` (stereo unspecified), the MIC99 (Aspergillus niger) is reported as 500 µg/mL, the MIC99 (Escherichia coli) is reported as 250 µg/mL and the MIC99 (Streptococcus pyogenes) is reported as 250 µg/mL. For the same compound, the MIC99 (Pseudomonas aeruginosa [1]) was 200 µg/mL, the Ratio (Candida albicans [2]) was 2 and the MIC99 (Aspergillus clavatus) was 500 µg/mL. The “growth inhibition (GI)” value [3] was 99%, the MIC [3] was 12.5 µg/mL (≈ 31.3 µM) and the MIC99 (Staphylococcus aureus [4]) was 250 µg/mL. For the same compound, the MIC99 (Candida albicans [5]) was 250 µg/mL and the IC50 (Leishmania braziliensis) was “Not Active”.
For `CO[C@H]1/C=C/O[C@@]2(C)Oc3c(C)c(O)c4c(O)c(c(/C=N/N5CCN(C)CC5)c(O)c4c3C2=O)NC(=O)/C(C)=C\C=C\[C@H](C)[C@H](O)[C@@H](C)[C@@H](O)[C@@H](C)[C@H](OC(C)=O)[C@@H]1C` [RIFAMPIN], the “growth inhibition (GI)” value [3] was 98% and the MIC [3] was 40 µg/mL (≈ 48.6 µM).
Work on `COc1cc(/C=C/C(=O)c2cccc([N+](=O)[O-])c2)cc(OC)c1OC` yielded an MIC99 (Aspergillus niger) of over 1000 µg/mL, an MIC99 (Escherichia coli) of 250 µg/mL and a CC50 at 72 h [6] of 49 µM. The MIC99 (Streptococcus pyogenes) was 100 µg/mL, the MIC99 (Pseudomonas aeruginosa [1]) was 250 µg/mL and the Ratio (Candida albicans [2]) was 2. For the same compound, the MIC99 (Aspergillus clavatus) was over 1000 µg/mL, the “growth inhibition (GI)” value [3] was 99% and the MIC [3] was 25 µg/mL (≈ 72.8 µM). The MIC99 (Staphylococcus aureus [4]) was 100 µg/mL, the “Ratio CC50/IC50” value [7] was 5.26 and the MIC99 (Candida albicans [5]) was 250 µg/mL. It also gave an IC50 (Leishmania braziliensis; [10]) of 9.3 µM.
With `COc1cc(OC)c(C2CC(c3cccc([N+](=O)[O-])c3)=NN2C(C)=O)cc1OC` (stereo unspecified) the MIC99 (Aspergillus niger) was 250 µg/mL, the MIC99 (Escherichia coli) was 125 µg/mL and the MIC99 (Streptococcus pyogenes) was 125 µg/mL. The MIC99 (Pseudomonas aeruginosa [1]) was 125 µg/mL, the MIC99 (Aspergillus clavatus) was 250 µg/mL and the “growth inhibition (GI)” value [3] was 98%. For the same compound, the MIC [3] was 500 µg/mL (≈ 1250 µM), the MIC99 (Staphylococcus aureus [4]) was 100 µg/mL and the MIC99 (Candida albicans [5]) was 1000 µg/mL. The IC50 (Leishmania braziliensis) was “Not Active”.
